Results reported in PMC6273912, “Novel 5-Substituted 2-(Aylmethylthio)-4-chloro-N-(5-aryl-1,2,4-triazin-3-yl)benzenesulfonamides: Synthesis, Molecular Structure, Anticancer Activity, Apoptosis-Inducing Activity and Metabolic Stability” (Molecules, 2016).

Assays:
[1] = Metabolic stability with human liver microsomes and NADPH; type: in vitro ADME; conditions: liver microsomes, pH 7.4, human liver microsomes 0.5 mg/mL, 1 mM NADPH, 10 μM compound, pH 7.4, 37 °C, up to 60 min, read-out: In Vitro Metabolic Half-Life t1/2
Description: Stock solutions of studied compounds were prepared at concentration of 10 mM in DMSO. […] Incubation mixture contained 10 μM of a studied derivative, 1 mM of NADPH (Sigma-Aldrich) and 0.5 mg/mL of human liver microsomes (HLM, Sigma-Aldrich) in potassium phosphate buffer (0.1 M, pH 7.4). Incubation was carried out in thermostat at 37 °C and started by addition of studied compound. 50 μL samples were taken after 5, 15, 30, 45 and 60 min. Enzymatic reaction was terminated by the addition of the equal volume of ice-cold acetonitrile containing 10 μM of alprazolam (Sigma-Aldrich) serving as internal standard (IS). Control incubations were performed without NADPH to assess chemical instability. After collection, samples were immediately centrifuged (10 min, 10,000 rpm) and resulted supernatant was directly analyzed or kept in −80 °C until LC-MS analysis. Natural logarithm of a compound over IS peak area ratio was plotted versus incubation time. Metabolic half-time (t1/2) was calculated from the slope of the linear regression, as reported in [48].
LC-MS analysis was performed on an Agilent 1260 system coupled to SingleQuad 6120 mass spectrometer (Agilent Technologies, Santa Clara, CA, USA). Ascentis Express ES-CN (2.1 mm × 100 mm, 2.7 μm, Supelco Analytical, Bellefonte, PA, USA) was used in reversed-phase mode with gradient elution starting with 50% of phase A (10 mM ammonium formate in water) and 50% of phase B (10 mM ammonium formate in acetonitrile-water mixture, 95:5 v/v). […] Total analysis time was 10 min at 25 °C, flow rate was 0.4 mL/min and the injection volume was 20 μL. The mass spectrometer was equipped with electrospray ion source and operated in positive ionization. Mass analyzer was set individually to each compound to detect [M + H]^+ pseudomolecular ions. MSD parameters of the ESI source were as follows: nebulizer pressure 50 psig (N2), drying gas […] (N2), drying gas temperature 300 °C, capillary voltage 3.5 kV, fragmentor voltage 100 V.

MCF-7 (breast cancer) = assay: MTT cell viability assay, MCF-7; type: cell-based, human; conditions: Homo sapiens, MCF7, 72 h of incubation, mean ± SD
How it was run: (§1)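 Cells were seeded at 5 × 10^3 cells/well and exposed for 72 h to compounds at 1, 10, 25, 50 and 100 μM, with DMSO stocks. MTT (0.5 mg/mL) was added for 2 h at 37 °C, and formazan absorbance was read at 550 nm. Values are mean ± SD of at least three independent triplicate experiments.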

HeLa = assay: Cell morphology (light microscope), HeLa; type: cell-based, human; conditions: 25–100 μM, 24 h
Description: To evaluate the changes in morphology of the treated cells, they were incubated with increasing concentrations of 37 (HCT-116, HeLa) or 46 (MCF-7) for 24 h and observed using light microscope.
The HCT-116, HeLa and MCF-7cells were seeded on 24-well plates (5 × 10^4/per well) in 300 μL of medium and incubated with 37 (HCT-116, HeLa) or 46 (MCF-7) for 24 h. Cells incubated with increasing concentrations of compounds (25–100 μM) were observed after 24 h using light microscope Axiovert 200 (Zeiss, Oberkochen, Germany).

[2] = test system: active caspases (caspases 1 through 9) in HeLa cells; assay: Caspase activity (FAM-VAD-FMK, flow cytometry), HeLa; type: cell-based, human; conditions: 100 μM, increase over control
Description: Caspase activation plays a central role in the execution of apoptosis and is required for the occurrence of its biochemical and morphological hallmarks, such as DNA fragmentation, formation of apoptotic bodies and chromatin condensation. The ability of the examined compounds to induce caspase activity was determined with the use of a fluorescent labeled caspase inhibitor, a carboxyfluorescein (FAM) derivative of valylalanylaspartic acid (VAD) fluoromethyl ketone (FMK).
FAM-VAD-FMK contains a target sequence recognized by active caspases (caspases 1 through 9). Binding to this sequence inhibits the enzymatic activity of caspases and allows for the determination of their activity through the direct measurement of fluorescent intensity of the bound inhibitor. […] The strongest influence on caspase activation was noticed for the HeLa cell line, where that cell population increased by 31% in the presence of 37 at a concentration of 100 μM.
Caspase activity was determined with the FLICA Apoptosis Detection Kit (Immunochemistry Technologies, Bloomington, MN, USA) according to the manufacturer’s instructions. […] The fluorescence intensity of fluorescein was determined with flow cytometry (BD FACSCalibur) and caspase activity was determined as the amount of fluorescence emitted from caspase inhibitors bound to the caspases.

HCT-116 (colon cancer) = assay: MTT cell viability assay, HCT-116; type: cell-based, human; conditions: 72 h of incubation, mean ± SD
How it was run: as §1

- half-life at 10 μM [1]: 32.8 min
- IC50 (MCF-7 (breast cancer)): 70 ± 3 µM
- IC50 (HCT-116 (colon cancer)): 36 ± 1 µM
- IC50 (HCT-116 (colon cancer); Homo sapiens, HCT-116, 72 h): 36 to 38 µM
Structure (SMILES): Cc1cc(S(=O)(=O)Nc2nncc(-c3ccc(C(F)(F)F)cc3)n2)c(SCc2cccc3ccccc23)cc1Cl [Compound 37, 4-Chloro-5-methyl-2-[(naphthalene-1-yl)methylthio]-N-[5-(4-trifluoromethylphenyl)-1,2,4-triazin-3-yl]-benzenesulfonamide]
- morphological changes (HeLa): shrinkage of the cells, detachment from the surface
- increase of cell population with activated caspases [2]: 31%
